Measured values taken from US6875451B2, “Compositions and methods for the treatment of primary and metastatic neoplastic diseases using arsenic compounds” (PolaRx Biopharmaceuticals Inc., priority 1997, dated 2005).

Tests used:
Assay type in all cases: cell-based
[1] = system: OVCAR-5; assay: SRB growth assay, 2 days exposure, ovarian cancer
Protocol: (§1) Arsenic trioxide (1 mg/ml, 10 mg/ampoule, manufactured by Taylor Pharmaceuticals, Decatur, Ill.) was tested at five concentrations each at 10-fold dilutions, i.e., 10^−5, 10^−6, 10^−7, 10^−8 and 10^−9 μg/ml.
(§2) The in vitro tests were performed by incubating the test cells in the presence of the indicated concentration of arsenic trioxide under standard culture conditions for a designated period of time, which is followed by a sulforhodamine B (SRB) protein assay to estimate cell viability or growth. The cell lines are organized into subpanels according to the origin of the cell lines, e.g., leukemia, breast cancer, etc. A description of the cell lines and method of testing is described in Monk et al. (1997, Anticancer Drug Des. 12:533-41) and Weinstein et al., (1997, Science 275:343-9), which are incorporated herein in their entirety.
(§3) The measurement of an effect is expressed in Percentage Growth (PG). The measured effect of the compound on a cell line is calculated according to one or the other of the following two expressions: If (Mean ODtest−Mean ODzero)≧0. then PG=100×(Mean ODtest−Mean ODzero)/(Mean ODctrl−Mean ODzero) If (Mean ODtest−Mean ODzero)<0. then PG=100×(Mean ODtest−Mean ODzero)/(Mean ODzero where: • Mean ODzero=the average of optical density measurements of SRB-derived color just before exposure of cells to the test compounds; • Mean ODtest=the average of optical density measurements of SRB-derived color after exposure of cells to the test compound for a designated period of time; and • Mean ODctrl=the average of optical density measurements of SRB-derived color after with no exposure of cells to the test compound for a designated period of time
(§4) The first two columns describe the subpanel (e.g., leukemia) and cell line (e.g., CCRF-CEM) involved. The next two columns list the Mean ODzero and Mean ODctrl; the next five columns list the Mean ODtest for each of five different concentrations. Each concentration is expressed as the log10 (molar or μg/ml). The next five columns list the calculated PGs for each concentration. The response parameters GI50, TGI and LC50 are interpolated values representing the concentrations at which the PG is +50, 0, and −50, respectively. Sometimes these response parameters cannot be obtained by interpolation. If, for instance, all of the PGs in a given row exceed +50, then none of the three parameters can be obtained by interpolation. In such a case, the value given for each response parameter is the highest concentration tested and is preceded by a “>” sign. This practice is extended similarly to the other possible situations where a response parameter cannot be obtained by interpolation.
(§5) In the first set, the cells from 56 different cancer cell lines were exposed to five concentrations of arsenic trioxide continuously for two days prior to performing the SRB assay. In the second set, the cells from 50 different cell lines (a subset of the first 56 cell lines, plus the renal cancer cell line 786-0) were exposed continuously for six days prior to the SRB assay.

[2] = system: IGROV1; assay: SRB growth assay, 2 days exposure, ovarian cancer
Protocol: as §1, §2, §3, §4, §5

[3] = system: SK-OV-3; assay: SRB growth assay, 2 days exposure, ovarian cancer
Protocol: as §1, §2, §3, §4, §5

[4] = system: OVCAR-8; assay: SRB growth assay, 2 days exposure, ovarian cancer
Protocol: as §1, §2, §3, §4, §5

[5] = system: OVCAR-3; assay: SRB growth assay, 2 days exposure, ovarian cancer
Protocol: as §1, §2, §3, §4, §5

[6] = system: OVCAR-5; assay: SRB growth assay, 6 days exposure, ovarian cancer; details: OVCAR-5, 6 days
Protocol: as §1, §2, §3, §4, §5

[7] = system: SK-OV-3; assay: SRB growth assay, 6 days exposure, ovarian cancer; details: SK-OV-3, 6 days
Protocol: as §1, §2, §3, §4, §5

[8] = system: OVCAR-8; assay: SRB growth assay, 6 days exposure, ovarian cancer; details: OVCAR-8, 6 days
Protocol: as §1, §2, §3, §4, §5

[9] = system: OVCAR-3; assay: SRB growth assay, 6 days exposure, ovarian cancer; details: OVCAR-3, 6 days
Protocol: as §1, §2, §3, §4, §5

[10] = system: IGROVI; assay: SRB growth assay, 6 days exposure, ovarian cancer; details: IGROV1, 6 days
Protocol: as §1, §2, §3, §4, §5

[11] = read-out: LC50 (the source's name)

Substance: arsenic trioxide
- TGI [1]: >0.0126 ng/mL
- Percent Growth ([1]; log10 conc −4.9): 34%
- Percent Growth ([1]; log10 conc −5.9): 97%
- Percent Growth ([1]; log10 conc −6.9): 93%
- Percent Growth ([1]; log10 conc −7.9): 103%
- Percent Growth ([1]; log10 conc −8.9): 105%
- TGI [2]: >0.0126 ng/mL
- Percent Growth ([2]; log10 conc −4.9): 18%
- Percent Growth ([2]; log10 conc −5.9): 102%
- Percent Growth ([2]; log10 conc −6.9): 105%
- Percent Growth ([2]; log10 conc −7.9): 118%
- Percent Growth ([2]; log10 conc −8.9): 111%
- TGI [3]: >0.0126 ng/mL
- Percent Growth ([3]; log10 conc −4.9): 40%
- Percent Growth ([3]; log10 conc −5.9): 100%
- Percent Growth ([3]; log10 conc −6.9): 98%
- Percent Growth ([3]; log10 conc −7.9): 97%
- Percent Growth ([3]; log10 conc −8.9): 94%
- TGI [4]: >0.0126 ng/mL
- Percent Growth ([4]; log10 conc −4.9): 28%
- Percent Growth ([4]; log10 conc −5.9): 80%
- Percent Growth ([4]; log10 conc −6.9): 84%
- Percent Growth ([4]; log10 conc −7.9): 92%
- Percent Growth ([4]; log10 conc −8.9): 92%
- TGI [5]: >0.0126 ng/mL
- Percent Growth ([5]; log10 conc −4.9): 12%
- Percent Growth ([5]; log10 conc −5.9): 90%
- Percent Growth ([5]; log10 conc −6.9): 97%
- Percent Growth ([5]; log10 conc −7.9): 99%
- Percent Growth ([5]; log10 conc −8.9): 101%
- TGI [6]: 7.53E−06
- Mean Optical Densities ([6]; Log 10 Concentration −4.9): 0.028
- Percent Growth ([6]; Log 10 Concentration −4.9): −26%
- Mean Optical Densities ([6]; Log 10 Concentration −5.9): 1.287
- Percent Growth ([6]; Log 10 Concentration −5.9): 91%
- Mean Optical Densities ([6]; Log 10 Concentration −6.9): 1.478
- Percent Growth ([6]; Log 10 Concentration −6.9): 105%
- Mean Optical Densities ([6]; Log 10 Concentration −7.9): 1.460
- Percent Growth ([6]; Log 10 Concentration −7.9): 104%
- Mean Optical Densities ([6]; Log 10 Concentration −8.9): 1.433
- Percent Growth ([6]; Log 10 Concentration −8.9): 102%
- CC50 [6, 11]: > 12.6 µM
- TGI [7]: 5.27E−06
- Mean Optical Densities ([7]; Log 10 Concentration −4.9): 0.020
- Percent Growth ([7]; Log 10 Concentration −4.9): −51%
- Mean Optical Densities ([7]; Log 10 Concentration −5.9): 1.247
- Percent Growth ([7]; Log 10 Concentration −5.9): 84%
- Mean Optical Densities ([7]; Log 10 Concentration −6.9): 1.461
- Percent Growth ([7]; Log 10 Concentration −6.9): 99%
- Mean Optical Densities ([7]; Log 10 Concentration −7.9): 1.410
- Percent Growth ([7]; Log 10 Concentration −7.9): 96%
- Mean Optical Densities ([7]; Log 10 Concentration −8.9): 1.445
- Percent Growth ([7]; Log 10 Concentration −8.9): 98%
- TGI [8]: 3.21E−06
- Mean Optical Densities ([8]; Log 10 Concentration −4.9): −0.001
- Percent Growth ([8]; Log 10 Concentration −4.9): −100%
- Mean Optical Densities ([8]; Log 10 Concentration −5.9): 1.437
- Percent Growth ([8]; Log 10 Concentration −5.9): 68%
- Mean Optical Densities ([8]; Log 10 Concentration −6.9): 2.242
- Percent Growth ([8]; Log 10 Concentration −6.9): 107%
- Mean Optical Densities ([8]; Log 10 Concentration −7.9): 1.848
- Percent Growth ([8]; Log 10 Concentration −7.9): 88%
- Mean Optical Densities ([8]; Log 10 Concentration −8.9): 2.272
- Percent Growth ([8]; Log 10 Concentration −8.9): 109%
- TGI [9]: 2.36E−06
- Mean Optical Densities ([9]; Log 10 Concentration −4.9): 0.001
- Percent Growth ([9]; Log 10 Concentration −4.9): −99%
- Mean Optical Densities ([9]; Log 10 Concentration −5.9): 0.482
- Percent Growth ([9]; Log 10 Concentration −5.9): 37%
- Mean Optical Densities ([9]; Log 10 Concentration −6.9): 1.124
- Percent Growth ([9]; Log 10 Concentration −6.9): 97%
- Mean Optical Densities ([9]; Log 10 Concentration −7.9): 1.128
- Percent Growth ([9]; Log 10 Concentration −7.9): 98%
- Mean Optical Densities ([9]; Log 10 Concentration −8.9): 1.047
- Percent Growth ([9]; Log 10 Concentration −8.9): 90%
- TGI [10]: 6.62E−06
- Mean Optical Densities ([10]; Log 10 Concentration −4.9): 0.216
- Percent Growth ([10]; Log 10 Concentration −4.9): −36%
- Mean Optical Densities ([10]; Log 10 Concentration −5.9): 2.877
- Percent Growth ([10]; Log 10 Concentration −5.9): 91%
- Mean Optical Densities ([10]; Log 10 Concentration −6.9): 3.204
- Percent Growth ([10]; Log 10 Concentration −6.9): 103%
- Mean Optical Densities ([10]; Log 10 Concentration −7.9): 3.056
- Percent Growth ([10]; Log 10 Concentration −7.9): 98%
- Mean Optical Densities ([10]; Log 10 Concentration −8.9): 3.541
- Percent Growth ([10]; Log 10 Concentration −8.9): 115%
- CC50 [10, 11]: > 12.6 µM
